Measured values as given in the supplement of paper PMC13380429.

What was measured:
[1] = tested on: A549-ACE2 infected with SARS-CoV-2; assay: cell count relative to DMSO; higher = less toxic; settings: 24 h
Caco-2 [2] = assay: cell viability relative to DMSO; higher = less toxic; settings: 72 h
Calu-3 [3] = assay: as above; settings: 72 h
HepG2 [4] = assay: as above; settings: 72 h
U2OS [5] = assay: as above; settings: 72 h
Vero E6 [6] = assay: as above; settings: 72 h
[7] = tested on: A549-ACE2 infected with SARS-CoV-2; assay: SARS-CoV-2 infection rate relative to DMSO; higher = more infection; settings: 24 h
A549-ACE2 = assay: drug-induced phospholipidosis relative to tamoxifen; higher = more phospholipidosis; settings: 24 h
[8] = tested on: A549-ACE2 infected with SARS-CoV-2; assay: morphology score (similarity to uninfected cells); higher = more like uninfected cells; settings: 24 h
Calu-3 [9] = assay: relative viability EC50 (midpoint between 100% and the lowest measured viability); higher = less toxic; settings: 72 h
HepG2 [10] = assay: as above; settings: 72 h
U2OS [11] = assay: as above; settings: 72 h
Vero E6 [12] = assay: as above; settings: 72 h
Caco-2 [13] = assay: drug sensitivity score (DSS) for viability; higher = more toxic; extreme values may be limits of the assay; settings: 72 h
Calu-3 [14] = assay: as above; settings: 72 h
HepG2 [15] = assay: as above; settings: 72 h
U2OS [16] = assay: as above; settings: 72 h
Vero E6 [17] = assay: as above; settings: 72 h
Caco-2 [18] = assay: relative viability EC50 (midpoint between 100% and the lowest measured viability); higher = less toxic; settings: 72 h

COC(=O)C[C@](O)(CCC(C)(C)O)C(=O)O[C@@H]1C(OC)=C[C@]23CCCN2CCc2cc4c(cc2[C@H]13)OCO4 [harringtonine]
cell count ([1]; 0.3 µM): 92% | cell count ([1]; 3 µM): 62% | cell count ([1]; 10 µM): 50% | cell count ([1]; 30 µM): 37% | cell viability (Caco-2 [2]; 1 nM): 108% | cell viability (Caco-2 [2]; 10 nM): 94.6% | cell viability (Caco-2 [2]; 100 nM): 73.5% | cell viability (Caco-2 [2]; 1000 nM): 56.3% | cell viability (Caco-2 [2]; 10000 nM): 53.6% | cell viability (Calu-3 [3]; 1 nM): 93.2% | cell viability (Calu-3 [3]; 10 nM): 98.7% | cell viability (Calu-3 [3]; 100 nM): 81% | cell viability (Calu-3 [3]; 1000 nM): 34.9% | cell viability (Calu-3 [3]; 10000 nM): 24.9% | cell viability (HepG2 [4]; 1 nM): 103% | cell viability (HepG2 [4]; 10 nM): 108% | cell viability (HepG2 [4]; 100 nM): 45.7% | cell viability (HepG2 [4]; 1000 nM): 11.1% | cell viability (HepG2 [4]; 10000 nM): 0.3% | cell viability (U2OS [5]; 1 nM): 95.9% | cell viability (U2OS [5]; 10 nM): 99.2% | cell viability (U2OS [5]; 100 nM): 46.8% | cell viability (U2OS [5]; 1000 nM): 11% | cell viability (U2OS [5]; 10000 nM): 0.9% | cell viability (Vero E6 [6]; 1 nM): 105% | cell viability (Vero E6 [6]; 10 nM): 100% | cell viability (Vero E6 [6]; 100 nM): 109% | cell viability (Vero E6 [6]; 1000 nM): 34.2% | cell viability (Vero E6 [6]; 10000 nM): 9.1% | SARS-CoV-2 infection rate ([7]; 0.3 µM): 5% | SARS-CoV-2 infection rate ([7]; 3 µM): 21% | SARS-CoV-2 infection rate ([7]; 10 µM): 12% | SARS-CoV-2 infection rate ([7]; 30 µM): 33% | drug-induced phospholipidosis (A549-ACE2; 0.3 µM): 0.19% | drug-induced phospholipidosis (A549-ACE2; 0.833333 µM): -6.78% | morphology score ([8]; 0.3 µM): 0.57 | morphology score ([8]; 3 µM): 0.26 | morphology score ([8]; 10 µM): 0.27 | morphology score ([8]; 30 µM): 0.29 | relative viability EC50 (Calu-3 [9]): 0.233 µM | relative viability EC50 (HepG2 [10]): 0.0934 µM | relative viability EC50 (U2OS [11]): 0.0946 µM | relative viability EC50 (Vero E6 [12]): 0.686 µM | drug sensitivity score (Caco-2 [13]): 11.3 | drug sensitivity score (Calu-3 [14]): 14.3 | drug sensitivity score (HepG2 [15]): 24.5 | drug sensitivity score (U2OS [16]): 23.5 | drug sensitivity score (Vero E6 [17]): 12.6

O=C(O)c1ccccc1NCCc1ccccc1 [tromaril]
cell viability (Caco-2 [2]; 1 nM): 97% | cell viability (Caco-2 [2]; 10 nM): 97% | cell viability (Caco-2 [2]; 100 nM): 96.9% | cell viability (Caco-2 [2]; 1000 nM): 96.2% | cell viability (Caco-2 [2]; 10000 nM): 102% | cell viability (Calu-3 [3]; 1 nM): 106% | cell viability (Calu-3 [3]; 10 nM): 94.5% | cell viability (Calu-3 [3]; 100 nM): 99.3% | cell viability (Calu-3 [3]; 1000 nM): 90.1% | cell viability (Calu-3 [3]; 10000 nM): 106% | cell viability (HepG2 [4]; 1 nM): 102% | cell viability (HepG2 [4]; 10 nM): 101% | cell viability (HepG2 [4]; 100 nM): 93.8% | cell viability (HepG2 [4]; 1000 nM): 104% | cell viability (HepG2 [4]; 10000 nM): 95% | cell viability (U2OS [5]; 1 nM): 102% | cell viability (U2OS [5]; 10 nM): 102% | cell viability (U2OS [5]; 100 nM): 101% | cell viability (U2OS [5]; 1000 nM): 96.4% | cell viability (U2OS [5]; 10000 nM): 101% | cell viability (Vero E6 [6]; 1 nM): 97.5% | cell viability (Vero E6 [6]; 10 nM): 99.5% | cell viability (Vero E6 [6]; 100 nM): 99% | cell viability (Vero E6 [6]; 1000 nM): 102% | cell viability (Vero E6 [6]; 10000 nM): 95.5% | relative viability EC50 (Caco-2 [18]): > 10 µM | relative viability EC50 (Calu-3 [9]): > 10 µM | relative viability EC50 (HepG2 [10]): > 10 µM | relative viability EC50 (U2OS [11]): > 10 µM | relative viability EC50 (Vero E6 [12]): > 10 µM | drug sensitivity score (Caco-2 [13]): 0 | drug sensitivity score (Calu-3 [14]): 0 | drug sensitivity score (HepG2 [15]): 0 | drug sensitivity score (U2OS [16]): 0 | drug sensitivity score (Vero E6 [17]): 0

O=C(N[C@H]1CN2CCC1CC2)c1cc2cccc(Cl)c2s1 [EVP-6124]
cell viability (Caco-2 [2]; 1 nM): 94.6% | cell viability (Caco-2 [2]; 10 nM): 97.5% | cell viability (Caco-2 [2]; 100 nM): 98.2% | cell viability (Caco-2 [2]; 1000 nM): 101% | cell viability (Caco-2 [2]; 10000 nM): 92.9% | cell viability (Calu-3 [3]; 1 nM): 87.9% | cell viability (Calu-3 [3]; 10 nM): 92% | cell viability (Calu-3 [3]; 100 nM): 89.1% | cell viability (Calu-3 [3]; 1000 nM): 98.5% | cell viability (Calu-3 [3]; 10000 nM): 85.1% | cell viability (HepG2 [4]; 1 nM): 90.6% | cell viability (HepG2 [4]; 10 nM): 95% | cell viability (HepG2 [4]; 100 nM): 106% | cell viability (HepG2 [4]; 1000 nM): 92.7% | cell viability (HepG2 [4]; 10000 nM): 94.7% | cell viability (U2OS [5]; 1 nM): 104% | cell viability (U2OS [5]; 10 nM): 100% | cell viability (U2OS [5]; 100 nM): 95% | cell viability (U2OS [5]; 1000 nM): 103% | cell viability (U2OS [5]; 10000 nM): 95.2% | cell viability (Vero E6 [6]; 1 nM): 95.6% | cell viability (Vero E6 [6]; 10 nM): 92.2% | cell viability (Vero E6 [6]; 100 nM): 97.8% | cell viability (Vero E6 [6]; 1000 nM): 96% | cell viability (Vero E6 [6]; 10000 nM): 92.9% | relative viability EC50 (Caco-2 [18]): > 10 µM | relative viability EC50 (Calu-3 [9]): > 10 µM | relative viability EC50 (HepG2 [10]): > 10 µM | relative viability EC50 (U2OS [11]): > 10 µM | relative viability EC50 (Vero E6 [12]): > 10 µM | drug sensitivity score (Caco-2 [13]): 0 | drug sensitivity score (Calu-3 [14]): 0 | drug sensitivity score (HepG2 [15]): 0 | drug sensitivity score (U2OS [16]): 0 | drug sensitivity score (Vero E6 [17]): 0
